In PubChem BioAssay (NCI):
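Tested at 5 concentrations; 48 h exposure; 96-well plates; endpoints linearly interpolated, else capped at highest concentration. TGI: concentration producing complete growth inhibition.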 Where a SMILES comes first, the peptide text is derived from it. [ ]: non-standard residue; d: D form. The star is where a group is joined. ξ: configuration not given here. NMeF = CN[C@@H](Cc1ccccc1)C(=O)O; ξNMeV = CNC(C(=O)O)C(C)C; Boc = CC(C)(C)OC(=O)*; OBn = c1ccc(CO*)cc1

Legend:
Test in all cases: NCI tumour cell line growth inhibition, 48 h
HCT-15 colon = tested on: HCT-15 colon
A498 renal = tested on: A498 renal
NCI-H460 lung = tested on: NCI-H460 lung
SK-MEL-5 melanoma = tested on: SK-MEL-5 melanoma
HT29 colon = tested on: HT29 colon
NCI-H522 lung = tested on: NCI-H522 lung
COLO 205 colon = tested on: COLO 205 colon
KM12 colon = tested on: KM12 colon
SF-295 CNS = tested on: SF-295 CNS
HOP-62 NSCLC = tested on: HOP-62 NSCLC
MDA-MB-435 = tested on: MDA-MB-435
SW-620 colon = tested on: SW-620 colon
SNB-75 CNS = tested on: SNB-75 CNS
TK-10 renal = tested on: TK-10 renal
MOLT-4 leukemia = tested on: MOLT-4 leukemia
NCI-H226 lung = tested on: NCI-H226 lung
ACHN renal = tested on: ACHN renal
786-0 renal = tested on: 786-0 renal
CCRF-CEM leukemia = tested on: CCRF-CEM leukemia

Row | SMILES | TGI (HCT-15 colon) | TGI (A498 renal) | TGI (NCI-H460 lung) | TGI (SK-MEL-5 melanoma) | TGI (HT29 colon) | TGI (NCI-H522 lung) | TGI (COLO 205 colon) | TGI (KM12 colon) | TGI (SF-295 CNS) | TGI (HOP-62 NSCLC) | TGI (MDA-MB-435) | TGI (SW-620 colon) | TGI (SNB-75 CNS) | TGI (TK-10 renal) | TGI (MOLT-4 leukemia) | TGI (NCI-H226 lung) | TGI (ACHN renal) | TGI (786-0 renal) | TGI (CCRF-CEM leukemia)
1 | CCOc1ccc2c(ccc(/C=C\c3cc(C)c4cccnc4c3O)[n+]2C)c1 | 23.7 µM | 9.1 µM | 10.2 µM | 3.48 µM | > 32.8 µM | 5.14 µM | 5.82 µM | 22.7 µM | 20.7 µM | 28 µM | 13.3 µM | 28 µM | 15 µM | 6 µM | 10.6 µM | 3.77 µM | 21.4 µM | 29.3 µM | 
2 | CC(C)C(C(=O)N1CCC[C@@H]1C(=O)OCc1ccccc1)N(C)C(=O)C(C(C)C)N(C)C(=O)[C@H](Cc1ccccc1)N(C)C(=O)[C@H](NC(=O)OC(C)(C)C)C(C)C (some centres not stated) (Boc-[dV][NMeF][ξNMeV][ξNMeV][dP]-OBn) | > 100 µM | > 100 µM | > 100 µM | > 100 µM | > 100 µM | > 100 µM | > 100 µM | > 100 µM | > 100 µM | > 100 µM |  | > 100 µM | > 100 µM | > 100 µM | > 100 µM | > 100 µM | > 100 µM | > 100 µM | > 100 µM
3 | CC(C)C(=O)/C=C/c1ccc(Cl)cc1 |  |  | 42.3 µM | 21.7 µM | 31.7 µM | 30.4 µM | 59.9 µM | 23.8 µM | 27.8 µM |  |  | 16.3 µM | 33.4 µM |  | 55.9 µM |  | 28.5 µM | 23.1 µM | 51.7 µM
4 | COc1cc(C(C)c2cc3c(cc2OCCCCOc2cc4c(cc2C(C)c2cc(OC)c(OC)c(OC)c2)OCO4)OCO3)cc(OC)c1OC (configuration not stated) | > 100 µM |  | > 100 µM | > 100 µM | > 100 µM |  | > 100 µM | > 100 µM | 91.3 µM | > 100 µM |  | 96 µM | 69.7 µM | > 100 µM | > 100 µM | 80.6 µM | > 100 µM | > 100 µM | > 100 µM
5 | NCC(NC(=O)OCc1ccccc1)C(=O)O (configuration not stated) | > 50 µM | > 50 µM | > 50 µM | > 50 µM | > 50 µM | > 50 µM | > 50 µM | > 50 µM | > 50 µM | > 50 µM |  | > 50 µM | > 50 µM | > 50 µM | > 50 µM | > 50 µM | > 50 µM | > 50 µM | > 50 µM
6 | O=C1C2CCC(C2)C12CC1(c3ccccc3)C(=O)c3ccccc3N1O2 (configuration not stated) | > 100 µM | > 100 µM |  | > 100 µM | > 100 µM | > 100 µM | > 100 µM |  | > 100 µM | > 100 µM |  | > 100 µM | > 100 µM |  | > 100 µM | > 100 µM | > 100 µM | > 100 µM | > 100 µM
7 | COc1ccc([N-]/C(=N\n2c(=O)c(C)nn(C)c2=S)N(c2ccc(OC)cc2)c2nn3c(=O)c(C)n[n+](C)c3s2)cc1 | > 100 µM | > 100 µM | > 100 µM | > 100 µM | > 100 µM | > 100 µM | > 100 µM | > 100 µM | > 100 µM | > 100 µM |  | > 100 µM | > 100 µM |  | > 100 µM | > 100 µM | > 100 µM | > 100 µM | > 100 µM
8 | COc1ccc(C2ON(c3ccccn3)CC=C2C)cc1 (configuration not stated) | > 100 µM |  | > 100 µM | > 100 µM | > 100 µM | > 100 µM | > 100 µM | > 100 µM | > 100 µM | > 100 µM |  | > 100 µM | > 100 µM |  | > 100 µM | > 100 µM | > 100 µM | > 100 µM | > 100 µM
9 | CC(C)OP(=O)(OC(C)C)/C(=N/N)NNc1ccc([N+](=O)[O-])cc1 | > 100 µM | > 100 µM | > 100 µM | > 100 µM |  | > 100 µM | > 100 µM | > 100 µM |  | > 100 µM |  | > 100 µM | > 100 µM | > 100 µM | > 100 µM | > 100 µM | > 100 µM | > 100 µM | > 100 µM
10 | CC[C@@H](C(=O)[C@@H](C)[C@@H](O)[C@H](C)CCc1ccc(C)c(O)c1C(=O)O)[C@H]1O[C@](CC)([C@H]2CC[C@](O)(CC)[C@H](C)O2)C[C@@H]1C | 16 µM | 2.37 µM | 9.47 µM | 3.62 µM | 12.6 µM | 3.11 µM | 4.76 µM | 9.57 µM | 6.91 µM | 4.24 µM |  | 15.6 µM | 7.07 µM | 12.6 µM | 3.12 µM | 10.8 µM | 13.2 µM | 13.5 µM | 6.29 µM
11 | COC(=O)N/N=C/c1oc(-c2ccccc2)c(-c2ccccc2)c1[N+](=O)[O-] | > 100 µM |  | > 100 µM | > 100 µM | > 100 µM | > 100 µM | > 100 µM | > 100 µM | > 100 µM | > 100 µM |  | > 100 µM | > 100 µM | > 100 µM | > 100 µM | > 100 µM | > 100 µM | > 100 µM | 
12 | O=C1c2nn(-c3ccccc3)nc2C(c2ccccc2)N1c1ccccc1 (configuration not stated) | > 100 µM |  | > 100 µM | > 100 µM | > 100 µM | > 100 µM | > 100 µM | > 100 µM | > 100 µM | 96.6 µM |  | > 100 µM | 81.2 µM |  | > 100 µM | > 100 µM | > 100 µM | > 100 µM | > 100 µM
13 | NC(=S)N1N=C2c3ccccc3CC[C@H]2[C@@H]1c1cccs1 | > 100 µM | > 100 µM | > 100 µM |  | 73.3 µM | 56.1 µM | 40 µM | > 100 µM | 58.1 µM | > 100 µM |  | > 100 µM |  | > 100 µM | 94.5 µM | > 100 µM | > 100 µM | > 100 µM | 81.5 µM
14 | CC12CC[C@H](O)C(C)(C)[C@H]1CC[C@](C)(O)C2COc1ccc2ccc(=O)oc2c1 (some centres not stated) | > 100 µM | > 100 µM | > 100 µM |  | > 100 µM | > 100 µM | > 100 µM | > 100 µM | > 100 µM | > 100 µM |  | > 100 µM | > 100 µM | > 100 µM | > 100 µM | > 100 µM | > 100 µM | > 100 µM | > 100 µM
15 | CCOc1ccc(N=Nc2ccc3oc(=O)c(C(=O)Nc4ccc(OC)cc4)cc3c2)cc1 | > 100 µM | > 100 µM |  | 38.8 µM | > 100 µM | 87.8 µM | > 100 µM | > 100 µM | > 100 µM | 63.6 µM |  | > 100 µM | 93.7 µM | > 100 µM | 44.4 µM |  |  | 93.9 µM | 25.4 µM
16 | COc1ccc2c(c1)nc1n2C(c2c(F)cccc2Cl)SC1 (configuration not stated) | > 37.2 µM | > 29.7 µM | > 35.1 µM | > 43.2 µM | > 100 µM |  | > 54.9 µM | > 54.4 µM | > 24.8 µM | > 44.6 µM |  | > 60.2 µM | 7.85 µM | > 76.8 µM | > 41.4 µM | 43.4 µM | > 82.9 µM | > 41.1 µM | > 100 µM
17 | CC(=O)OC1CC2(c3ccccc3)C(=O)c3ccccc3N2O1 (configuration not stated) | > 100 µM | > 100 µM |  | > 100 µM | > 100 µM | > 100 µM | > 100 µM |  | > 100 µM | > 100 µM |  | > 100 µM | > 100 µM |  | > 100 µM | > 100 µM | > 100 µM | > 100 µM | > 100 µM
18 | O=C1Nc2ccccc2Nc2nc3cccccc-3c21 | > 100 µM |  | > 100 µM | > 100 µM | > 100 µM | > 100 µM | > 100 µM | > 100 µM | > 100 µM | > 100 µM |  | > 100 µM | > 100 µM | > 100 µM |  | > 100 µM | > 100 µM | > 100 µM | > 100 µM
19 | Cc1ccc(/C(=C/C=C(C#N)C#N)Sc2cc(Cl)ccc2Cl)cc1 | 12.5 µM |  | > 100 µM | 26.4 µM | > 100 µM | 22.1 µM | 20.4 µM | 28 µM | 16 µM | > 100 µM | 7.46 µM | 22.5 µM | 38.7 µM | 18.7 µM |  | 13.6 µM | 10 µM | 5.01 µM | 
20 | CC1(C)C2CCC3(OCCO3)C1C1OC12 (configuration not stated) | > 100 µM | > 100 µM | > 100 µM | > 100 µM | > 100 µM | > 100 µM | > 100 µM | > 100 µM | > 100 µM |  |  | > 100 µM | > 100 µM | > 100 µM | > 100 µM | > 100 µM | > 100 µM | > 100 µM | > 100 µM
21 | O=C(Nc1ccc(Cl)cc1)/C(Cc1cccc[n+]1[O-])=N\Nc1ccc([N+](=O)[O-])cc1[N+](=O)[O-] | > 100 µM | > 100 µM | > 100 µM | > 100 µM |  | > 100 µM | > 100 µM | > 100 µM | > 100 µM | > 100 µM |  | > 100 µM | > 100 µM | > 100 µM | > 100 µM |  | > 100 µM | > 100 µM | > 100 µM
